What was measured:
Assay in all cases: relative viability (nuclei count vs DMSO), 5 days (fraction); higher = more cells survive
LCLC-103H = tested on: LCLC-103H
Summary of the method: (§1)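 Each reported value is a median over duplicate plates. It expresses relative viability: treated-well nuclei count divided by vehicle-well nuclei count. Lung cancer cell lines in 1536-well plates were dosed by pin tool a day after seeding, alone with one drug or with a fixed anchor-drug dose plus five library-drug doses (not always all listed) in √10 steps, and nuclei were counted after 5 days.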

LK-2 = tested on: LK-2
Summary of the method: as §1

RERF-LC-KJ = tested on: RERF-LC-KJ
Summary of the method: as §1

NCI-H661 = tested on: NCI-H661
Summary of the method: as §1

NCI-H1666 = tested on: NCI-H1666
Summary of the method: as §1

PC-14 = tested on: PC-14
Summary of the method: as §1

NCI-H727 = tested on: NCI-H727
Summary of the method: as §1

NCI-H2170 = tested on: NCI-H2170
Summary of the method: as §1

NCI-H1437 = tested on: NCI-H1437
Summary of the method: as §1

NCI-H1355 = tested on: NCI-H1355
Summary of the method: as §1

ChaGo-K-1 = tested on: ChaGo-K-1
Summary of the method: as §1

HOP-62 = tested on: HOP-62
Summary of the method: as §1

NCI-H2126 = tested on: NCI-H2126
Summary of the method: as §1

BEN = tested on: BEN
Summary of the method: as §1

NCI-H1944 = tested on: NCI-H1944
Summary of the method: as §1

NCI-H647 = tested on: NCI-H647
Summary of the method: as §1

LOU-NH91 = tested on: LOU-NH91
Summary of the method: as §1

SK-MES-1 = tested on: SK-MES-1
Summary of the method: as §1

NCI-H1993 = tested on: NCI-H1993
Summary of the method: as §1

EKVX = tested on: EKVX
Summary of the method: as §1

LXF-289 = tested on: LXF-289
Summary of the method: as §1

NCI-H441 = tested on: NCI-H441
Summary of the method: as §1

HCC-827 = tested on: HCC-827
Summary of the method: as §1

Cc1cn(-c2cc(NC(=O)c3ccc(C)c(Nc4nccc(-c5cccnc5)n4)c3)cc(C(F)(F)F)c2)cn1 [Nilotinib] + CS(=O)(=O)N1CCN(Cc2cc3nc(-c4cccc5[nH]ncc45)nc(N4CCOCC4)c3s2)CC1 [Pictilisib] (partner 1 µM)
relative viability (LCLC-103H; first compound 0.001 µM): 0.649
relative viability (LCLC-103H; first compound 0.003162 µM): 0.638
relative viability (LCLC-103H; first compound 0.03162 µM): 0.755
relative viability (LCLC-103H; first compound 0.1 µM): 0.421
relative viability (LK-2; first compound 0.001 µM): 0.614
relative viability (LK-2; first compound 0.003162 µM): 0.451
relative viability (LK-2; first compound 0.01 µM): 0.577
relative viability (LK-2; first compound 0.03162 µM): 0.594
relative viability (LK-2; first compound 0.1 µM): 0.608
relative viability (RERF-LC-KJ; first compound 0.001 µM): 0.549
relative viability (RERF-LC-KJ; first compound 0.003162 µM): 0.572
relative viability (RERF-LC-KJ; first compound 0.01 µM): 0.533
relative viability (RERF-LC-KJ; first compound 0.03162 µM): 0.591
relative viability (RERF-LC-KJ; first compound 0.1 µM): 0.55
relative viability (NCI-H661; first compound 0.001 µM): 0.396
relative viability (NCI-H661; first compound 0.003162 µM): 0.38
relative viability (NCI-H661; first compound 0.01 µM): 0.438
relative viability (NCI-H661; first compound 0.03162 µM): 0.325
relative viability (NCI-H661; first compound 0.1 µM): 0.391
relative viability (NCI-H1666; first compound 0.001 µM): 0.348
relative viability (NCI-H1666; first compound 0.003162 µM): 0.319
relative viability (NCI-H1666; first compound 0.01 µM): 0.373
relative viability (NCI-H1666; first compound 0.03162 µM): 0.463
relative viability (NCI-H1666; first compound 0.1 µM): 0.397
relative viability (PC-14; first compound 0.003162 µM): 0.83
relative viability (PC-14; first compound 0.01 µM): 0.841
relative viability (PC-14; first compound 0.03162 µM): 0.503
relative viability (PC-14; first compound 0.1 µM): 0.664
relative viability (NCI-H727; first compound 0.001 µM): 0.382
relative viability (NCI-H727; first compound 0.01 µM): 0.447
relative viability (NCI-H727; first compound 0.1 µM): 0.264
relative viability (NCI-H2170; first compound 0.001 µM): 0.283
relative viability (NCI-H2170; first compound 0.003162 µM): 0.306
relative viability (NCI-H2170; first compound 0.01 µM): 0.296
relative viability (NCI-H2170; first compound 0.03162 µM): 0.349
relative viability (NCI-H2170; first compound 0.1 µM): 0.299
relative viability (NCI-H1437; first compound 0.001 µM): 0.381
relative viability (NCI-H1437; first compound 0.003162 µM): 0.414
relative viability (NCI-H1437; first compound 0.01 µM): 0.373
relative viability (NCI-H1437; first compound 0.03162 µM): 0.47
relative viability (NCI-H1437; first compound 0.1 µM): 0.44
relative viability (NCI-H1355; first compound 0.001 µM): 0.399
relative viability (NCI-H1355; first compound 0.003162 µM): 0.468
relative viability (NCI-H1355; first compound 0.01 µM): 0.371
relative viability (NCI-H1355; first compound 0.03162 µM): 0.421
relative viability (NCI-H1355; first compound 0.1 µM): 0.19
relative viability (ChaGo-K-1; first compound 0.001 µM): 1.22
relative viability (ChaGo-K-1; first compound 0.003162 µM): 0.581
relative viability (ChaGo-K-1; first compound 0.01 µM): 0.654
relative viability (ChaGo-K-1; first compound 0.03162 µM): 0.315
relative viability (ChaGo-K-1; first compound 0.1 µM): 0.444
relative viability (HOP-62; first compound 0.001 µM): 0.539
relative viability (HOP-62; first compound 0.003162 µM): 0.902
relative viability (HOP-62; first compound 0.01 µM): 0.587
relative viability (HOP-62; first compound 0.03162 µM): 0.63
relative viability (HOP-62; first compound 0.1 µM): 0.401
relative viability (NCI-H2126; first compound 0.001 µM): 0.494
relative viability (NCI-H2126; first compound 0.003162 µM): 0.501
relative viability (NCI-H2126; first compound 0.01 µM): 0.393
relative viability (NCI-H2126; first compound 0.03162 µM): 0.546
relative viability (NCI-H2126; first compound 0.1 µM): 0.378
relative viability (BEN; first compound 0.001 µM): 0.588
relative viability (BEN; first compound 0.003162 µM): 0.552
relative viability (BEN; first compound 0.01 µM): 0.574
relative viability (BEN; first compound 0.1 µM): 0.556
relative viability (NCI-H1944; first compound 0.001 µM): 0.355
relative viability (NCI-H1944; first compound 0.003162 µM): 0.342
relative viability (NCI-H1944; first compound 0.01 µM): 0.358
relative viability (NCI-H1944; first compound 0.03162 µM): 0.345
relative viability (NCI-H1944; first compound 0.1 µM): 0.234
relative viability (NCI-H647; first compound 0.001 µM): 0.528
relative viability (NCI-H647; first compound 0.003162 µM): 0.452
relative viability (NCI-H647; first compound 0.01 µM): 0.38
relative viability (NCI-H647; first compound 0.03162 µM): 0.43
relative viability (NCI-H647; first compound 0.1 µM): 0.397
relative viability (LOU-NH91; first compound 0.001 µM): 0.548
relative viability (LOU-NH91; first compound 0.003162 µM): 0.537
relative viability (LOU-NH91; first compound 0.01 µM): 0.543
relative viability (LOU-NH91; first compound 0.03162 µM): 0.483
relative viability (LOU-NH91; first compound 0.1 µM): 0.54
relative viability (SK-MES-1; first compound 0.001 µM): 0.433
relative viability (SK-MES-1; first compound 0.003162 µM): 0.447
relative viability (SK-MES-1; first compound 0.01 µM): 0.424
relative viability (SK-MES-1; first compound 0.03162 µM): 0.396
relative viability (SK-MES-1; first compound 0.1 µM): 0.465
relative viability (NCI-H1993; first compound 0.001 µM): 0.984
relative viability (NCI-H1993; first compound 0.003162 µM): 0.682
relative viability (NCI-H1993; first compound 0.01 µM): 0.789
relative viability (NCI-H1993; first compound 0.03162 µM): 0.917
relative viability (NCI-H1993; first compound 0.1 µM): 0.673
relative viability (EKVX; first compound 0.001 µM): 0.486
relative viability (EKVX; first compound 0.003162 µM): 0.588
relative viability (EKVX; first compound 0.01 µM): 0.531
relative viability (EKVX; first compound 0.03162 µM): 0.344
relative viability (EKVX; first compound 0.1 µM): 0.552
relative viability (LXF-289; first compound 0.001 µM): 0.837
relative viability (LXF-289; first compound 0.003162 µM): 0.946
relative viability (LXF-289; first compound 0.01 µM): 0.858
relative viability (LXF-289; first compound 0.03162 µM): 0.667
relative viability (LXF-289; first compound 0.1 µM): 0.335
relative viability (NCI-H441; first compound 0.001 µM): 0.371
relative viability (NCI-H441; first compound 0.003162 µM): 0.576
relative viability (NCI-H441; first compound 0.01 µM): 0.532
relative viability (NCI-H441; first compound 0.1 µM): 0.305
relative viability (HCC-827; first compound 0.001 µM): 0.685
relative viability (HCC-827; first compound 0.003162 µM): 0.985
relative viability (HCC-827; first compound 0.01 µM): 1.15
relative viability (HCC-827; first compound 0.03162 µM): 0.829
relative viability (HCC-827; first compound 0.1 µM): 0.965

Source: the supplement of paper PMC10307832
